Experimental data published in publication PMC7441158 (Nature Communications, 2020).

Experiments:
[1] = biological target: T1, VIP receptor 1 (VPAC1) (Homo sapiens, UniProt P32241); assay: cAMP assay, COS-7 cells transiently expressing VPAC1; format: cell-based; settings: for EC50: log(EC50) VPAC1 + VIP, log10 of EC50, COS-7 cells, cAMP, Hill = 1, top constrained to 100%; for % receptor activation at 1µM agonist: VPAC1 + VIP, Suppl. fig 5a source data
T1 sequence (P32241 31-457): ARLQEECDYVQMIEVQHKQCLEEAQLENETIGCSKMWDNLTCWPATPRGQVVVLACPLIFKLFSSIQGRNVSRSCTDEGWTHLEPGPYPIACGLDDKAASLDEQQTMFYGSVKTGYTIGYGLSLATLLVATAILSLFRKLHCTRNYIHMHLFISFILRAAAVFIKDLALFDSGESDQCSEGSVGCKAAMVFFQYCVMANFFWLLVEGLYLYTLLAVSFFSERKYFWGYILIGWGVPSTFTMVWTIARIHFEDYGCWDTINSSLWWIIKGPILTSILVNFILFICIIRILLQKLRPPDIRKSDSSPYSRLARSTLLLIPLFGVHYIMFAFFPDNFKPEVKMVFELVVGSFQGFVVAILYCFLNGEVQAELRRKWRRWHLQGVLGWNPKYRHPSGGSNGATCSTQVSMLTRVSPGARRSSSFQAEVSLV

[2] = biological target: T2, VIP receptor 2 (VPAC2) (Homo sapiens, UniProt P41587); assay: cAMP assay, COS-7 cells transiently expressing VPAC2; format: cell-based; settings: for % receptor activation at 1µM agonist: VPAC2 + VIP, Suppl. fig 5a source data; for EC50: log(EC50) VPAC 2 + VIP, log10 of EC50, COS-7 cells, cAMP, Hill = 1, top constrained to 100%
T2 sequence (P41587 24-438): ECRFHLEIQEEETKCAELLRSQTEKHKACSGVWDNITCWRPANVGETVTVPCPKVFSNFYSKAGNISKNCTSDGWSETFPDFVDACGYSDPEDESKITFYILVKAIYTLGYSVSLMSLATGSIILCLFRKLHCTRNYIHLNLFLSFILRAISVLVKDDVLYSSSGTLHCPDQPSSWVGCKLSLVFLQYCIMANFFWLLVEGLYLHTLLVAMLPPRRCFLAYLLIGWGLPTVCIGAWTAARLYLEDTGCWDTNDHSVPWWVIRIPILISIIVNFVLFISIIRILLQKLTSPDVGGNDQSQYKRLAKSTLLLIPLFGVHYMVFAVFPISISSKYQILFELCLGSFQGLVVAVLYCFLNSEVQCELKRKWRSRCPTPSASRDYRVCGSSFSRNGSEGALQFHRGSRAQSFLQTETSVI

[3] = tested on: neprilysin (NEP); assay: NEP (R&D Systems) in 50 mM Tris, 0.05% Brij-35, pH 9.0; settings: 37 °C, up to 24 h
[4] = independent experiment 1, duplicate determinations
[5] = independent experiment 2, duplicate determinations
[6] = independent experiment 3, duplicate determinations

Compound	EC50 [1, 4] [nM]	EC50 [1, 5] [nM]	EC50 [1, 6] [nM]	Efficacy raw data for Glucagon-receptors, VPAC1 + VIP ([1]; replicate 1)	Efficacy raw data for Glucagon-receptors, VPAC1 + VIP ([1]; replicate 2)	Efficacy raw data for Glucagon-receptors, VPAC1 + VIP ([1]; replicate 3)	% receptor activation at 1µM agonist ([2]; replicate 1) [%]	% receptor activation at 1µM agonist ([2]; replicate 2) [%]	% receptor activation at 1µM agonist ([2]; replicate 3) [%]	% receptor activation at 1µM agonist ([2]; replicate 4) [%]	% receptor activation at 1µM agonist ([2]; replicate 5) [%]	% receptor activation at 1µM agonist ([2]; replicate 6) [%]	EC50 [2, 4] [nM]	EC50 [2, 5] [nM]	EC50 [2, 6] [nM]	Efficacy raw data for Glucagon-receptors, VPAC2 + VIP ([2]; replicate 1)	Efficacy raw data for Glucagon-receptors, VPAC2 + VIP ([2]; replicate 3)	Efficacy raw data for Glucagon-receptors, VPAC2 + VIP ([2]; replicate 2)	other results
CC[C@H](C)[C@H](NC(=O)[C@H](CO)NC(=O)[C@H](CC(N)=O)NC(=O)[C@H](CC(C)C)NC(=O)[C@H](Cc1ccc(O)cc1)NC(=O)[C@H](CCCCN)NC(=O)[C@H](CCCCN)NC(=O)[C@@H](NC(=O)[C@H](C)NC(=O)[C@H](CCSC)NC(=O)[C@H](CCC(N)=O)NC(=O)[C@H](CCCCN)NC(=O)[C@H](CCCNC(=N)N)NC(=O)[C@H](CC(C)C)NC(=O)[C@H](CCCNC(=N)N)NC(=O)[C@@H](NC(=O)[C@H](Cc1ccc(O)cc1)NC(=O)[C@H](CC(N)=O)NC(=O)[C@H](CC(=O)O)NC(=O)[C@@H](NC(=O)[C@H](Cc1ccccc1)NC(=O)[C@@H](NC(=O)[C@H](C)NC(=O)[C@H](CC(=O)O)NC(=O)[C@H](CO)NC(=O)[C@@H](N)Cc1c[nH]cn1)C(C)C)[C@@H](C)O[C@H]1O[C@H](CO)[C@H](O)[C@H](O[C@@H]2O[C@H](CO)[C@H](O)[C@H](O[C@]3(C(=O)O)C[C@H](O)[C@@H](NC(C)=O)[C@H]([C@H](O)[C@H](O)CO)O3)[C@H]2O)[C@H]1NC(C)=O)[C@@H](C)O)C(C)C)C(=O)N[C@@H](CC(C)C)C(=O)N[C@@H](CC(N)=O)C(N)=O [VIP ST]	34.1	116	162	91.02	112.4	93.56	68.0	68.9	66.1	69.7	54.2	49.2	378	596	946	72.87	74.68		
GWTLNSAGYLLGPHAVGNHRSFSDKNGLTS [Galanin T]																			not cleaved [3]: −: not susceptible to degradation
CC[C@H](C)[C@H](NC(=O)[C@H](CO)NC(=O)[C@H](CC(N)=O)NC(=O)[C@H](CC(C)C)NC(=O)[C@H](Cc1ccc(O)cc1)NC(=O)[C@H](CCCCN)NC(=O)[C@H](CCCCN)NC(=O)[C@@H](NC(=O)[C@H](C)NC(=O)[C@H](CCSC)NC(=O)[C@H](CCC(N)=O)NC(=O)[C@H](CCCCN)NC(=O)[C@H](CCCNC(=N)N)NC(=O)[C@H](CC(C)C)NC(=O)[C@H](CCCNC(=N)N)NC(=O)[C@@H](NC(=O)[C@H](Cc1ccc(O)cc1)NC(=O)[C@H](CC(N)=O)NC(=O)[C@H](CC(=O)O)NC(=O)[C@@H](NC(=O)[C@H](Cc1ccccc1)NC(=O)[C@@H](NC(=O)[C@H](C)NC(=O)[C@H](CC(=O)O)NC(=O)[C@H](CO)NC(=O)[C@@H](N)Cc1c[nH]cn1)C(C)C)[C@@H](C)O[C@H]1O[C@H](CO)[C@H](O)[C@H](O)[C@H]1NC(C)=O)[C@@H](C)O)C(C)C)C(=O)N[C@@H](CC(C)C)C(=O)N[C@@H](CC(N)=O)C(N)=O [VIP Tn]	42.6	207	101	102	111.1	105.8	70.4	67.4	67.0	57.3	63.7	60.1	421	656	577	74.75	78.02	186	% receptor activation at 1µM agonist ([1]; replicate 4): 82.0%
CC[C@H](C)[C@H](NC(=O)[C@H](CO)NC(=O)[C@H](CC(N)=O)NC(=O)[C@H](CC(C)C)NC(=O)[C@H](Cc1ccc(O)cc1)NC(=O)[C@H](CCCCN)NC(=O)[C@H](CCCCN)NC(=O)[C@@H](NC(=O)[C@H](C)NC(=O)[C@H](CCSC)NC(=O)[C@H](CCC(N)=O)NC(=O)[C@H](CCCCN)NC(=O)[C@H](CCCNC(=N)N)NC(=O)[C@H](CC(C)C)NC(=O)[C@H](CCCNC(=N)N)NC(=O)[C@@H](NC(=O)[C@H](Cc1ccc(O)cc1)NC(=O)[C@H](CC(N)=O)NC(=O)[C@H](CC(=O)O)NC(=O)[C@@H](NC(=O)[C@H](Cc1ccccc1)NC(=O)[C@@H](NC(=O)[C@H](C)NC(=O)[C@H](CC(=O)O)NC(=O)[C@H](CO)NC(=O)[C@@H](N)Cc1c[nH]cn1)C(C)C)[C@@H](C)O)[C@@H](C)O)C(C)C)C(=O)N[C@@H](CC(C)C)C(=O)N[C@@H](CC(N)=O)C(N)=O [VIP, vasoactive intestinal polypeptide, reference compound]																99.97	100	100	
CC[C@H](C)[C@H](NC(=O)[C@H](CO)NC(=O)[C@H](CC(N)=O)NC(=O)[C@H](CC(C)C)NC(=O)[C@H](Cc1ccc(O)cc1)NC(=O)[C@H](CCCCN)NC(=O)[C@H](CCCCN)NC(=O)[C@@H](NC(=O)[C@H](C)NC(=O)[C@H](CCSC)NC(=O)[C@H](CCC(N)=O)NC(=O)[C@H](CCCCN)NC(=O)[C@H](CCCNC(=N)N)NC(=O)[C@H](CC(C)C)NC(=O)[C@H](CCCNC(=N)N)NC(=O)[C@@H](NC(=O)[C@H](Cc1ccc(O)cc1)NC(=O)[C@H](CC(N)=O)NC(=O)[C@H](CC(=O)O)NC(=O)[C@@H](NC(=O)[C@H](Cc1ccccc1)NC(=O)[C@@H](NC(=O)[C@H](C)NC(=O)[C@H](CC(=O)O)NC(=O)[C@H](CO)NC(=O)[C@@H](N)Cc1c[nH]cn1)C(C)C)[C@@H](C)O[C@H]1O[C@H](CO)[C@H](O)[C@H](O[C@@H]2O[C@H](CO)[C@H](O)[C@H](O)[C@H]2O)[C@H]1NC(C)=O)[C@@H](C)O)C(C)C)C(=O)N[C@@H](CC(C)C)C(=O)N[C@@H](CC(N)=O)C(N)=O [VIP T]	18.9	88.7	45.8	95.97	106.4	107.3	72.7	72.4	74.8	68.0	58.9	52.3	202	422	718	75.53	67.09	106.2	% receptor activation at 1µM agonist ([1]; replicate 5): 104.2%
CC[C@H](C)[C@H](NC(=O)[C@H](CO)NC(=O)[C@H](CC(N)=O)NC(=O)[C@H](CC(C)C)NC(=O)[C@H](Cc1ccc(O)cc1)NC(=O)[C@H](CCCCN)NC(=O)[C@H](CCCCN)NC(=O)[C@@H](NC(=O)[C@H](C)NC(=O)[C@H](CCSC)NC(=O)[C@H](CCC(N)=O)NC(=O)[C@H](CCCCN)NC(=O)[C@H](CCCNC(=N)N)NC(=O)[C@H](CC(C)C)NC(=O)[C@H](CCCNC(=N)N)NC(=O)[C@@H](NC(=O)[C@H](Cc1ccc(O)cc1)NC(=O)[C@H](CC(N)=O)NC(=O)[C@H](CC(=O)O)NC(=O)[C@@H](NC(=O)[C@H](Cc1ccccc1)NC(=O)[C@@H](NC(=O)[C@H](C)NC(=O)[C@H](CC(=O)O)NC(=O)[C@H](CO)NC(=O)[C@@H](N)Cc1c[nH]cn1)C(C)C)[C@@H](C)O)[C@@H](C)O)C(C)C)C(=O)N[C@@H](CC(C)C)C(=O)N[C@@H](CC(N)=O)C(N)=O [VIP non-glycosylated]							79.5	82.6	101.8	110.5	97.7	107.3							
